In article PMC9663686, “Proline, hydroxyproline, and pyrrolidone carboxylic acid derivatives as highly efficient but reversible transdermal permeation enhancers” (Scientific Reports, 2022):

Legend:
human skin = assay: Diclofenac permeation through human skin in Franz diffusion cells with co-applied enhancer; type: in vitro ADME; conditions: for CDERMIS, diclofenac concentration in dermis / CEPIDERMIS, diclofenac concentration in epidermis: 1% enhancer co-applied with 3% DC in 60% PG, after 48 h permeation, mean ± SEM
Protocol: Donor samples for reversibility and infrared studies contained 1% enhancer in 60% PG. All samples were thoroughly mixed, incubated at 32 °C for 24 h, and, if needed, carefully resuspended before applying on the skin. The effects of the studied enhancers on the solubility of model drugs were assessed as described previously.
The permeation-enhancing potencies of the prepared compounds were evaluated on human skin in Franz diffusion cells. Human skin was slowly thawed, cut into 2 × 2 cm pieces, fixed in Teflon holders with 1-cm^2 circular permeation areas, and mounted into Franz cells epidermal side up. The acceptor compartment (15.9 ± 0.1 ml) was filled with phosphate-buffered saline at pH 7.4 with 0.005% gentamicin (PBS) and stirred at 32 °C throughout the experiment. The skin integrity was checked by electrical impedance (any skin sample with the impedance < 10 kΩ was excluded). Then, 100 µl of a donor sample (infinite dose) was applied to the skin and covered with a glass slide. Acceptor phase samples (300 µl) were collected at predetermined time intervals for 48 h, to reach steady-state and were replaced by the same volume of fresh PBS. […] The drug concentrations were measured by HPLC (see supplementary data).
The flux of the model drug through the skin Jss (µg/cm^2/h) was calculated from the linear region of this plot. The enhancement ratio (ER) was calculated as the ratio of flux with and without an enhancer.
After the permeation experiment, the cells were dismounted, the skin was carefully washed with PBS, and the permeation area of the skin (1 cm^2) was punched off. After heating the skin fragments to 80 °C for 1 min, the epidermis (E) was peeled off the dermis (D), individually weighed and extracted by 1 and 2 ml, respectively, of an extraction solvent (identical to the mobile phase for the drug HPLC analysis, see supplementary data) for 24 h. The drug concentration was measured by HPLC (see supplementary data).

3T3 mouse fibroblasts = assay: Neutral red (NR) uptake cell viability assay, 3T3; type: cell-based; conditions: NIH3T3, 48-h incubation, read-out: IC50, 3T3 cells, NR assay
Excerpt: Next, the in vitro toxicities of the most promising enhancers Pro3 and Pro4, along with the parent Pro2, on spontaneously immortalized human keratinocytes (HaCaT) and Swiss albino mouse embryonic fibroblasts (3T3) were studied (Fig. 3). […] The cellular toxicities were further probed using the 3-(4,5-dimethylthiazol-2-yl)-2,5-diphenyltetrazolium bromide (MTT) uptake assay, based on the transformation of yellow MTT into purple formazan by mitochondrial reductases of living cells. The MTT assay also yielded toxicity values in tens of µM with trends to higher toxicity with a longer acyl chain length (thus also higher lipophilicity) of enhancers (Fig. 3).
Cell viability was determined via 3-(4,5-dimethylthiazol-2-yl)-2,5-diphenyltetrazolium bromide (MTT) and neutral red (NR) uptake assays after 48-h incubation with the enhancers (see Supplementary data for details).
Both cell lines were cultivated in Dulbecco’s modified Eagle’s medium (DMEM, Lonza, Basel, Switzerland) supplemented with 10% heat-inactivated fetal bovine serum (Merck, Darmstadt, Germany), 10 mM HEPES buffer (Merck, Darmstadt, Germany), and 1% penicillin/streptomycin solution (Lonza, Basel, Switzerland) in 75-cm^2 tissue culture flasks (TPP, Trasadingen, Switzerland) at 37°C in a humidified atmosphere of 5% CO2. Subconfluent cells were sub-cultured every 3-4 days.
For toxicity studies, the stock-solutions of studied compounds were prepared in dimethyl sulfoxide (DMSO). These stock samples were diluted to the required concentration by the cell culture medium immediately before adding them onto the cells. The amount of DMSO applied to the cells was kept under its intrinsic measurable toxicity limit (below 1 vol.%). […]
Another approach used for the toxicity assessment was the neutral red (NR) uptake assay. […] The plates were shaken at rt for 30 min, and the optical density of the soluble NR was measured at λ = 540 nm using a Tecan Infinite 200 M plate reader.
The viability of each experimental group was expressed as the percentage of the untreated controls incubated under the same conditions (100%).

rat skin = conditions: 5% concentration (154 mM), topical; cited from earlier work
[1] = Skin viability after topical enhancer application (TTC reduction test); conditions: human, freshly excised full thickness human skin, 1% in 60% PG for 24 or 48 h, decrease not significant, read-out: viability of treated skin relative to untreated skin
Protocol: Freshly excised full thickness human skin was incubated in Dulbecco’s modified Eagle’s medium (DMEM, Lonza, Verviers, Belgium) supplemented with 10% heat-inactivated fetal bovine serum (Merck, Darmstadt, Germany), and 1% penicillin/streptomycin + 1% amphotericin B solution (Lonza, Verviers, Belgium) at 37 °C in a humidified atmosphere of 5% CO2. Skin fragments were treated with 1% enhancer in 60% PG, 20 µl/cm^2, 60% PG alone or left untreated for 24 or 48 h. Then the skin was washed rinsed with distilled water and gently blotted dry. Skin viability was evaluated using the 2,3,5-triphenyltetrazolium chloride (TTC) reduction test[57]. Punch biopsies of 5 mm diameter were incubated in 1 ml of 1.5% TTC and 3% sodium succinate in phosphate buffered saline at pH 7.4 at 37 °C under nitrogen in the dark. After 1 h, the skin samples were dried and the dark red formazan derivative produced by the mitochondrial enzymes was extracted with 1 ml of 2-methoxyethanol for 12 h. Absorbance was measured at 490 nm using Tecan Infinite 200 M plate reader (Tecan, Grödig, Austria) and corrected using skin samples devitalized by boiling as a negative control. The viability of skin exposed to the different preparations was expressed as a percentage of untreated control skin.

[2] = 1% enhancer with 3% DC in 60% PG

For `CCCCCCCCCCCCOC(=O)C1CCCN1C(C)=O` (centres unmarked) [Pro2, N-acetyl proline dodecyl ester], the “CDERMIS, diclofenac concentration in dermis” value (shortened to “CDERMIS … in dermis”) (human skin) was 1.08 ± 0.09 µg/mg, the “CEPIDERMIS, diclofenac concentration in epidermis” value (“CEPIDERMIS … in epidermis” for short) (human skin) was 7.16 ± 0.79 µg/mg and the IC50 (3T3 mouse fibroblasts) was 84.09 ± 0.49 µM. For the same molecule, the “visible changes in rat skin after topical application” value (rat skin) was “did not cause any visible changes in rat skin”.
In the case of `CCCCCCCCCCCCOC(=O)C1CCCN1C(=O)CC` (centres unmarked) [Pro3], the “CDERMIS … in dermis” value (human skin) is reported as 1.54 ± 0.28 µg/mg, the “CEPIDERMIS … in epidermis” value (human skin) is reported as 11.18 ± 2.39 µg/mg and the IC50 (3T3 mouse fibroblasts) is reported as 57.2 ± 2.58 µM. The viability at 1 % [1] was ≥ 92%.
For `CCCCCCCCCCCCOC(=O)C1CCCN1C(=O)CCC` (centres unmarked) [Pro4], the “CDERMIS … in dermis” value (human skin) was 1.71 ± 0.31 µg/mg, the “CEPIDERMIS … in epidermis” value (human skin) was 12.70 ± 2.71 µg/mg and the “fold increase of DC retention in dermis over control” value (human skin; [2]) was “fourfold”. For the same molecule, the “fold increase of DC retention in epidermis over control” value (human skin; [2]) was 3 fold, the IC50 (3T3 mouse fibroblasts) was 56.8 ± 2.45 µM and the viability at 1 % [1] was ≥ 92%.
